Test results as given in patent US20100158808A1, “Altered Activity of Toll-Like Receptors” (priority 2003, published 2010).

Experiments:
[1] = Loss of HS from spleen tissue after intrasplenic injection (immunopathology); assay type: in vivo, mice; settings: within 5 hours of injection
Experimental: Immunopathology. After intraperitoneal (i.p.) injection of ketamine and xylazine, murine spleens were directly visualized through an incision in the lateral abdominal wall and injected with 100 μl of PBS containing 0.1 U of elastase or PBS alone. Five hours later, the spleen was harvested and pieces snap-frozen. Tissue sections were prepared and stained as previously described (Dempsey et al. supra) with the several modifications. In particular, secondary and tertiary antibodies were mouse serum (Jackson ImmunoResearch Laboratories, West Grove, Pa.) preabsorbed and diluted in M.O.M. diluent (Vector Laboratories, Burlingame, Calif.). Fluorescent images were converted to grayscale using SPOT software (Diagnostic Instruments, Sterling Heights, Mich.).
To determine whether elastase liberates HS in vivo, spleen tissues were harvested from mice that had been injected intrasplenically with the enzyme, and the tissues were tested for the presence of HS. […] Thus, pancreatic elastase can induce loss of HS proteoglycan from tissues in vivo.

TLR4 = biological target: T1, TLR4 (Mus musculus, UniProt Q9JHF9+Q9QUK6); assay: TNF-α secretion by dendritic cells (APC) cocultured with PAEC, ELISA; assay type: cell-based; settings: cocultures of PAEC and murine APCs, TLR4-positive or -negative
T1 sequence (Q9QUK6 26-835): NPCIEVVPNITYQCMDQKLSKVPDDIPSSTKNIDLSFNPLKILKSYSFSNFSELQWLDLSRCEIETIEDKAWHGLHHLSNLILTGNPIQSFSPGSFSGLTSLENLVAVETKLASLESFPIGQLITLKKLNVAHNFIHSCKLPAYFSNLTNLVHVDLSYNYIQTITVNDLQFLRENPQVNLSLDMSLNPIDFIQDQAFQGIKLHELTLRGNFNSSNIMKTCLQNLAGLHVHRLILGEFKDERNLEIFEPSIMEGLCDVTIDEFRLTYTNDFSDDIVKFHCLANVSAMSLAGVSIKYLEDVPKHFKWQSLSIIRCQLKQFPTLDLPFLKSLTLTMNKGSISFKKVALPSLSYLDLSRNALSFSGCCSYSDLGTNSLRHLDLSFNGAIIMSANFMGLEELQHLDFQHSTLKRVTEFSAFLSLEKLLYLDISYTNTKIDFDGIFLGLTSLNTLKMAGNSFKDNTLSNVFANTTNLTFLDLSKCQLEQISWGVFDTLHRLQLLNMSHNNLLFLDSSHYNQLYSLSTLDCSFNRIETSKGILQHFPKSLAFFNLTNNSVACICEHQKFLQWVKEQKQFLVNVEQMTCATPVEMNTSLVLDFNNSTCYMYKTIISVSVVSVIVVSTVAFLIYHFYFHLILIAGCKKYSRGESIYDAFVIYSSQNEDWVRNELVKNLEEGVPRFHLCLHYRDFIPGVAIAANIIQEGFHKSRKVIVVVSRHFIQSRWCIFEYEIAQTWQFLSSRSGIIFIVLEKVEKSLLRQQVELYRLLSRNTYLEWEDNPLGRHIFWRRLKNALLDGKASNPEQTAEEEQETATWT
T1 sequence (Q9JHF9 19-160): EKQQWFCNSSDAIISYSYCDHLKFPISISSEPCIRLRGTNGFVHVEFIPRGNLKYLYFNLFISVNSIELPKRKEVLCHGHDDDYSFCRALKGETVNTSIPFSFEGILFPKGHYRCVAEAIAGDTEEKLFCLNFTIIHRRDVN
Experimental: Cell Isolation and Culture. Dendritic cells were generated from murine bone marrow cultures as previously described (Kodaira et al. (2000) J. Immunol. 165:1599). At day 6 or 7 of culture, nonadherent cells and loosely adherent proliferating dendritic cell aggregates were harvested for analysis or stimulation. PAEC were cultured to confluence and their identity was confirmed as previously described (Ryan and Maxwell (1986) J. Tissue Cult. Methods 10:3).
Cell Culture Stimulation. Dendritic cells (2×10^6 per ml) cocultured with confluent monolayers of PAEC in 96-well plates were stimulated with 10 μg/ml chondroitin sulfate, 500 ng/ml CpG DNA, 10 ng/ml LPS, 10 μg/ml HS, 50 μg/ml zymosan, or PBS, unless otherwise indicated. To control for purity, agonists were pretreated with END-X B15, or mixed with Limulus anti-LPS factor before stimulation of cells, as indicated. In some experiments, agonists were boiled before use for 60 minutes at 100° C.
Cytokine Quantification. Age-matched female mice were injected in the peritoneum with 0.5 U of elastase, 5 mg of HS, 200 U of heparin, 150 μg of CpG DNA, or PBS with a total volume of 250 μl. One hour and 3 hours after injection, 100-μl blood samples were collected from the tail vein. […] Concentrations of TNF-α were analyzed by enzyme-linked sandwich ELISA (R&D Systems, Minneapolis, Minn.). […]

Substance | Loss of HS from blood vessels of spleen [1] | TNF-α secretion by APC (TLR4)
elastase: pancreatic elastase (Calbiochem; type IV porcine pancreatic elastase, Sigma-Aldrich), protease that cleaves ECM proteins | lost HS from blood vessels at the injection site | secreted TNF-α in a TLR4-dependent manner
heparan sulfate [HS] | – | secreted TNF-α in a TLR4-dependent manner
